Measurements taken from BindingDB's records for doi:10.1016/s0960-894x(01)00246-3 (Rohm and Haas, 2001).

Each compound was assayed against Tubulin alpha/beta (Bos taurus) (assay: Inhibition of Bos taurus (bovine) brain tubulin polymerization).

EC50 [µM] | Structure (SMILES)
> 100 | COc1ccc(-c2ccccc2[N+](=O)[O-])c(OC)c1OC [2,3,4-Trimethoxy-2'-nitro-biphenyl]
> 100 | COc1cccc([C@@H]2CC=CC[C@H]2[N+](=O)[O-])c1 [1-Methoxy-3-((1S,6R)-6-nitro-cyclohex-3-enyl)-benzene]
6.25 | COc1ccc(-c2ccc(OC)c(OC)c2OC)c(C)c1 [2,3,4,4'-Tetramethoxy-2'-methyl-biphenyl]
> 100 | COc1ccc(C2CC=CCC2C#N)c(OC)c1OC (centres undefined) [6-(2,3,4-Trimethoxy-phenyl)-cyclohex-3-enecarbonitrile]
50 | COc1ccc(-c2ccccc2C#N)c(OC)c1OC [2',3',4'-Trimethoxy-biphenyl-2-carbonitrile]
> 100 | O=[N+]([O-])[C@@H]1CC=CC[C@H]1c1ccccc1 [((1S,6R)-6-Nitro-cyclohex-3-enyl)-benzene]
6.25 | COc1ccc(-c2ccc(OC)c(OC)c2OC)c([N+](=O)[O-])c1 [2,3,4,4'-Tetramethoxy-2'-nitro-biphenyl]
6.25 | COc1ccc(-c2ccc(OC)c(OC)c2OC)c(C#N)c1 [4,2',3',4'-Tetramethoxy-biphenyl-2-carbonitrile]

Structure (SMILES) | EC50 [µM]
COc1ccc(-c2ccc(OC)c(OC)c2OC)cc1 [2,3,4,4'-Tetramethoxy-biphenyl] | 6.25
